Laboratory results reported in PMC9137614, “TXH11106: A Third-Generation MreB Inhibitor with Enhanced Activity against a Broad Range of Gram-Negative Bacterial Pathogens” (Antibiotics, 2022).
Where two headings read alike, the source gives them in different places.

Biological target: T1, MreB (EcMreB) (Escherichia coli, UniProt P0A9X4)
T1 construct: N-terminal 8× His-tagged E. coli MreB (mreB from ATCC 25922), wild-type
Test: malachite green ATPase assay with purified EcMreB; Eadie–Hofstee kinetics
Type: biochemical

T1 sequence (P0A9X4 whole entry): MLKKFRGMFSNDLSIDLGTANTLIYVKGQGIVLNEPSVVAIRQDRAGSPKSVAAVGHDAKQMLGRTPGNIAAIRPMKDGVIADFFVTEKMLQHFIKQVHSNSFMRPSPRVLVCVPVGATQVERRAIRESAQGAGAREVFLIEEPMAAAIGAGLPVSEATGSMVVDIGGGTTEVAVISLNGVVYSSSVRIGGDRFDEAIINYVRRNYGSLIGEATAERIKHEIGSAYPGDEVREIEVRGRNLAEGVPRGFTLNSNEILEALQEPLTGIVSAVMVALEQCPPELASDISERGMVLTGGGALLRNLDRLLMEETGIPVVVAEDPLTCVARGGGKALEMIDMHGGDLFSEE

Structure (SMILES) | IC50 (read-out: IC50) [µM] | IC50 [µM]
NC1CCCc2c1[nH]c1ccc(Cl)c(Cl)c21 (stereo not drawn) [compound 4, 5,6-dichloro-2,3,4,9-tetrahydro-1H-carbazol-1-amine] | 14 ± 2 | 
NC1CCCc2c1[nH]c1ccc(Br)cc21 (stereo not drawn) [CBR-4830] | 49 ± 8 | 
N=C(N)SCc1ccc(Cl)c(Cl)c1 [A22] |  | 447 ± 87
